Test results taken from patent US20070219141A1, “Plant Materials Extraction Method” (priority 2003, published 2007).

Key:
Assay type in all cases: cell-based
Pseudomonas aeruginosa = test: Disk diffusion assay on agar plates; parameters: key: “+” active; “—” not active
Text: (§1) Microorganisms: Laboratory strains of bacteria and fungus were obtained from Dr. Neil Towers' and Dr. Jovel's lab, The University of British Columbia. Seven species of bacteria and one species of fungus will be used in the screening process. The bacteria strains consisted of Staphylococcus aureus, methicillin resistant Staphylococcus aureus, Bacillus subtilis and Enterococcus faecalis, Escherichia coli, Pseudomonas aeruginosa, and Salmonella typhimurium. The fungal species was Candida albicans.
(§2) Methods: Disk diffusion assay on agar plates inoculated with the organisms being studies. The plates were divided into quadrants or sixths using a black marking pen. In quadrant 1 and 2, negative and positive controls were run (no treatment and gentamicin). Test compounds were run on the remaining available portions.

[1] = system: all the bacteria and fungus used in above biological screening; test: Disk diffusion assay, whole panel; settings: seven bacteria and C. albicans
Text: as §1, §2

Salmonella typhimurium = test: Disk diffusion assay on agar plates; parameters: key: “+” active; “—” not active
Text: as §1, §2

Candida albicans = test: Disk diffusion assay on agar plates; parameters: key: “+” active; “—” not active
Text: as §1, §2

Enterococcus faecalis = test: Disk diffusion assay on agar plates; parameters: key: “+” active; “—” not active
Text: as §1, §2

Row | Compound | Anti-microbial activity P. a (Pseudomonas aeruginosa) | anti-microbial activity over the panel, in words [1] | Anti-microbial activity S. t. (Salmonella typhimurium) | Anti-microbial activity C. a (Candida albicans) | Anti-microbial activity E. f. (Enterococcus faecalis)
1 | CC(C)c1cccc(=O)c(O)c1 [Hinokitiol standard, 2,4,6-Cycloheptatrien-1-one,2-hydroxy-4-(1-methylethyl)] | + | demonstrated activities against all the bacteria and fungus |  |  | 
2 | CC1(C)C=CC=C(C(=O)O)C=C1 [Thujic acid standard, thujic acid] | — | showed activities against some bacteria and fungus | + |  | 
3 | Gentamicin |  | active against all the tested bacteria but not against C. albicans |  | — | +
